Laboratory results published in US11066412B2, “Substituted pyrrolo[2,1-a]phthalazines and benzo[g]pyrrolo[2,1-a]phthalazines for the treatment of cancer” (Academia Sinica, priority 2017, dated 2021).
Where two headings read alike, the source gives them in different places.

Assays:
[1] = system: human lymphoblastic leukemia cell line (CCRF-CEM); test: in vitro cytotoxicity, PrestoBlue assay; format: cell-based; settings: 72-hr incubation; mean ± STDEV of three to six experiments; read-out: IC50 CCRF-CEM
Outline: (§1)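 Cells exposed to compounds for 72 hr, then viability read by PrestoBlue after 1-2 hr at 37° C, absorbance 570 and 600 nm.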

colon cancer HCT-116 = test: in vitro cytotoxicity, PrestoBlue assay; format: cell-based, human; settings: Table 2
Outline: as §1

[2] = system: non-small cell lung cancer H460; test: in vitro cytotoxicity, PrestoBlue assay; format: cell-based, human; settings: Table 2
Outline: as §1

pancreatic cancer PacaS1 = test: in vitro cytotoxicity, PrestoBlue assay; format: cell-based, human; settings: Table 2
Outline: as §1

[3] = system: vinblastine-resistant sub-cell line (CCRF-CEM/VBL); test: in vitro cytotoxicity, PrestoBlue assay; format: cell-based, human; settings: for IC50: 72-hr incubation, mean ± STDEV of three to six experiments, read-out: IC50 CEM/VBL; for resistance factor (IC50 CEM/VBL vs IC50 of the parent cell line): number in brackets
Outline: as §1

[4] = system: small cell lung cancer H526; test: in vitro cytotoxicity, PrestoBlue assay; format: cell-based, human; settings: read-out: IC50 H526
pEGFP-N1 plasmid DNA = test: DNA cross-linking, alkaline agarose gel electrophoresis; format: biochemical; settings: FIG. 1; for formation of DNA interstrand crosslinks: 1-20 μM, 37° C., 2 hrs
Protocol: In the present example, BO-2590, BO-2577 (Formula I-A) and BO-2698, BO-2755, BO-2762 and BO-2768 (Formula I-B) were tested for their DNA crosslinking activity, in which the cross-linking was analyzed by alkaline agarose gel electrophoresis. In brief, purified pEGFP-N1 plasmid DNA (1,500 ng) was mixed with various concentrations (1-20 μM) of the tested compounds in 40 μL binding buffer (3 mM sodium chloride/1 mM sodium phosphate, pH 7.4, and 1 mM EDTA). The reaction mixture was incubated at 37° C. for 2 hrs. At the end of reaction, the plasmid DNA was linearized by digestion with BamHI and followed by precipitation with ethanol. The DNA pellets were dissolved and denatured in alkaline buffer (0.5 N NaOH-10mM EDTA). An aliquot of 20 μL of DNA solution (1,000 ng) was mixed with 4 μL of 6× alkaline loading dye and then electrophoretically resolved on a 0.8% alkaline agarose gel with NaOH-EDTA buffer at 4° C. The electrophoresis was carried out at 18V for 22 h. After staining the gels with an ethidium bromide solution, the DNA was visualized under UV light. Results are illustrated in FIG. 1.

VEGFR-2 = molecular target: T1, VEGFR-2 (Homo sapiens, UniProt P35968); test: VEGFR-2 activation, western blotting in EA.hy926 cells; format: cell-based
T1 construct: endogenous in cells; host or cells: EA.hy926 endothelial cells
Protocol: In the present example, BO-2590 and BO-2577 were subject to the test of their activity in suppressing VEGFR-2 by western blotting analysis. Briefly, the endothelial EA.hy926 cells were incubated with BO-2590 or BO-2577 at various concentrations for 12 hr. The primary antibodies, anti-VEGFR-2 and anti-p-VEGFR-2, were used to blot the proteins of total VEGFR-2 and p-VEGFR-2, respectively. Results are illustrated in FIG. 3.

endothelial cells = test: transwell migration assay; format: cell-based; settings: 8 hours; FIG. 4, panel A
Protocol: In the present example, we explored whether compound BO-2590 was able to suppress the cell migration using transwell migration assay.
Briefly, the endothelial cells were placed on the upper layer of a cell permeable membrane and a solution containing BO-2590 was placed below the cell permeable membrane. Following an incubation period (8 hours), the cells that had migrated through the membrane were stained and counted under a fluorescence microscopy.

[5] = system: human SCLC H526 xenografts; test: tumor growth in xenograft-bearing nude mice; format: in vivo; settings: for tumor size: micelle formulation (Kolliphor/TWEEN 80/PEG400/ethanol/D5W), BO-2768 at 20 mg/kg twice daily, FIG. 12, panel A
Protocol: Athymic nude mice bearing the nu/nu gene were obtained from the National Laboratory Animal Center (Taipei, Taiwan). Male nude mice (6 weeks or older weighing 20-24 g or more) were used for all human tumor xenografts. The tested compounds were intravenously administered through tail vein. Tumor volume was determined by measuring the length x width x height (or width) with calipers. […] For tumor-bearing nude mice during the course of the experiment, the % body weight changes refer to: (the total weight on reading day/the total weight on day treatment started)×100.
In all experiments, the tumor cells were subcutaneously implanted in nude mice, and the BO-2590L was administered via tail vein when the tumor size reaching approximate 100 mm^3. […]
To confirm the therapeutic activity of BO-2590L, comparative experiments carried out by known chemotherapeutic agents, such as vatanalib and cisplatin, were also performed. Briefly, the H526 xenograft-bearing mice were divided into 4 groups which were treated with vehicle, BO-2590L (10 mg/kg, QD×9), vatalanib (100 mg/kg, QD×9), and cisplatin (4 mg/kg, Q2D×3), respectively. Results are illustrated in FIG. 11.
Results are illustrated in FIGS. 12 and 13.

[6] = body weight changes of xenograft-bearing nude mice; format: in vivo; settings: for deleterious effects on the bodyweight of the test animals: micelle formulation, FIG. 12, panel B
Protocol: Athymic nude mice bearing the nu/nu gene were obtained from the National Laboratory Animal Center (Taipei, Taiwan). Male nude mice (6 weeks or older weighing 20-24 g or more) were used for all human tumor xenografts. The tested compounds were intravenously administered through tail vein. Tumor volume was determined by measuring the length x width x height (or width) with calipers. The vehicle used for the tested compounds was normal saline (0.9% NaCl isotonic solution). For tumor-bearing nude mice during the course of the experiment, the % body weight changes refer to: (the total weight on reading day/the total weight on day treatment started)×100.

[7] = solubility / hydrophobicity (statement); format: physicochemical

T1 sequence (P35968 20-1356): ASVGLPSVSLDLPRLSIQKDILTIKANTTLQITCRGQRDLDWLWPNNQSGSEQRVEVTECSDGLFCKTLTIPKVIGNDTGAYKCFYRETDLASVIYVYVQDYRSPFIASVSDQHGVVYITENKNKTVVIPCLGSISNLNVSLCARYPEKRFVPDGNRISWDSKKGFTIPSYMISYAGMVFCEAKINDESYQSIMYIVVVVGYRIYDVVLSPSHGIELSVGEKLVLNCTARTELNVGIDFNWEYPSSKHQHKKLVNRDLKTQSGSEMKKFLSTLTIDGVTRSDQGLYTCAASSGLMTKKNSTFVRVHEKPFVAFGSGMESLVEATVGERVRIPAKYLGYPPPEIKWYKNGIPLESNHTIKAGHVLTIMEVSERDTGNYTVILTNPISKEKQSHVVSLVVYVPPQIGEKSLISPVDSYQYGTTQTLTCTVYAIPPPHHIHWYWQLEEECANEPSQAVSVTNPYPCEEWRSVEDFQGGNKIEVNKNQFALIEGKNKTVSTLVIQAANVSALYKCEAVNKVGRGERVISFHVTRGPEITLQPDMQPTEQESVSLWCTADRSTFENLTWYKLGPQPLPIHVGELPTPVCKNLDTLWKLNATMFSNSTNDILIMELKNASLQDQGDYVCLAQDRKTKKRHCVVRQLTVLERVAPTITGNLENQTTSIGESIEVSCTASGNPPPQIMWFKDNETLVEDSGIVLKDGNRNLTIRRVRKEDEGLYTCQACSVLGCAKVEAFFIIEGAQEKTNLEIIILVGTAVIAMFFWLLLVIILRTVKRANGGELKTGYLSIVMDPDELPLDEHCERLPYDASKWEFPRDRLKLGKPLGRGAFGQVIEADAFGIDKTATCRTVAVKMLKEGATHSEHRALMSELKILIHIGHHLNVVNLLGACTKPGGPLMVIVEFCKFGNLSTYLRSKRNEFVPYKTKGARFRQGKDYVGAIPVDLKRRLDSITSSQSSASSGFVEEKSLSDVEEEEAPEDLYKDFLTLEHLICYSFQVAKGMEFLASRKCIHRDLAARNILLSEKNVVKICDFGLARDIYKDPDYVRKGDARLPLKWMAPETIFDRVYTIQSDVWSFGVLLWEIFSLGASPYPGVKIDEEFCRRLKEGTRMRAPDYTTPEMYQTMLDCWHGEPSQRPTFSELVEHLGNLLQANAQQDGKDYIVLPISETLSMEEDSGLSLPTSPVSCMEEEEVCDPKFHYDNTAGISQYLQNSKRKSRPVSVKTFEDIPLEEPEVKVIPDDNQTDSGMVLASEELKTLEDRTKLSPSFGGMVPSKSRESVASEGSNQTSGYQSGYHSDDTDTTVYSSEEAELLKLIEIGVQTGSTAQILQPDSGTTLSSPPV

**Q.** With `Cc1c(CO)c(CO)c2c3ccccc3c(N3CCC(N4CCCCC4)CC3)nn12` [BO-2590, (6-([1,4′-Bipiperidin]-1′-yl)-3-methylpyrrolo[2,1-α]phthalazine-1,2-diyl)dimethanol] as the compound, how does the IC50 [1] read?
**A.** 230 ± 30 nM

**Q.** What about the IC50 (colon cancer HCT-116) of the same compound?
**A.** 400 ± 90 nM

**Q.** What about the IC50 [2] of the same compound?
**A.** 600 ± 110 nM

**Q.** What about the “IC50 Paca SI” value (pancreatic cancer PacaS1) of the same compound?
**A.** 300 ± 80 nM

**Q.** And the IC50 [3]?
**A.** 250 ± 40 nM

**Q.** And the “resistance factor (IC50 CEM/VBL vs IC50 of the parent cell line)” value [3]?
**A.** 1.09 ×

**Q.** And the IC50 ([4]; Table 2)?
**A.** 14 ± 4 nM

**Q.** And the “formation of DNA interstrand crosslinks” value (pEGFP-N1 plasmid DNA)?
**A.** induced DNA interstrand crosslinks

**Q.** And the “cross-linker strength compared with melphalan” value (pEGFP-N1 plasmid DNA)?
**A.** relatively stronger cross-linker than that of melphalan

**Q.** And the p-VEGFR-2 protein levels (VEGFR-2; EA.hy926 cells, 12 hr, FIG. 3)?
**A.** marked suppression in p-VEGFR-2 protein levels

**Q.** And the “total protein levels of VEGFR-2” value (VEGFR-2; EA.hy926 cells, 12 hr, FIG. 3)?
**A.** did not significantly change the total protein levels of VEGFR-2

**Q.** And the “dose effective on suppression of p-VEGFR-2, lower than that of Valatanib” value (VEGFR-2; relative to Valatanib)?
**A.** ~10 folds

**Q.** And the cell migration (endothelial cells)?
**A.** impairment in cell migration

**Q.** What about the tumor size [5] of the same compound?
**A.** as effective as irinotecan and cisplatin in reducing the tumor size

**Q.** What about the “deleterious effects on the bodyweight of the test animals” value ([6]; H526 xenograft mice) of the same compound?
**A.** none

**Q.** What about the solubility [7] of the same compound?
**A.** poor

**Q.** For `Cc1c(CO)c(CO)c2c3cc4ccccc4cc3c(N(C)C)nn12` [BO-2768, (6-(Dimethylamino)-3-methylbenzo[g]pyrrolo[2,1-α]phthalazine-1,2-diyl)dimethanol], which IC50 [1] is on record?
**A.** 190 ± 10 nM

**Q.** And the IC50 (colon cancer HCT-116)?
**A.** 650 ± 20 nM

**Q.** What about the IC50 [2] of the same compound?
**A.** 1020 ± 160 nM

**Q.** And the “IC50 Paca SI” value (pancreatic cancer PacaS1)?
**A.** 3980 ± 1040 nM

**Q.** What about the IC50 [3] of the same compound?
**A.** 100 ± 10 nM

**Q.** What about the “resistance factor (IC50 CEM/VBL vs IC50 of the parent cell line)” value [3] of the same compound?
**A.** 0.53 ×

**Q.** What about the IC50 ([4]; Table 2) of the same compound?
**A.** 50 ± 1 nM

**Q.** And the IC50 ([4]; Table 3)?
**A.** 40 ± 5 nM

**Q.** What about the “formation of DNA interstrand crosslinks” value (pEGFP-N1 plasmid DNA) of the same compound?
**A.** induced DNA interstrand crosslinks

**Q.** What about the tumor growth ([5]; 20 mg/kg twice per day, entire time of the study, FIG. 13, panel A) of the same compound?
**A.** completely suppress the growth of tumor

**Q.** What about the “tumor growth, dose dependence” value ([5]; FIG. 13, panel A) of the same compound?
**A.** suppressed tumor growth in a dose-dependent manner

**Q.** And the tumor size [5]?
**A.** growth of tumor was completely suppressed

**Q.** What about the “body weight of the test animals” value ([6]; H211 xenograft mice, co-administration of BO-2768 and cisplatin, FIG. 14, panel B) of the same compound?
**A.** without adversely affecting the body weight

**Q.** And the “effects on the bodyweight of the test animals” value ([6]; H526 xenograft mice, 20 mg/kg twice per day, FIG. 13, panel B)?
**A.** without any deleterious effects on the bodyweight

**Q.** And the “deleterious effects on the bodyweight of the test animals” value ([6]; H526 xenograft mice)?
**A.** none
